Assay results as given in patent US20200022370A1, “MICROBIOCIDAL OXADIAZOLE DERIVATIVES” (SYNGENTA PARTICIPATIONS AG, priority 2016, published 2020).

Experiments:
[1] = test system: Phakopsora pachyrhizi; experiment: Phakopsora pachyrhizi / soybean / leaf disc preventative (Asian soybean rust); format: in vivo; settings: foliar, 200 ppm in the applied formulation, soybean leaf disks, inoculated one day after application, vs untreated, 12 to 14 days after application, read-out: disease control
Outline: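 Soybean leaf discs on water agar sprayed with formulated compound diluted in water, then inoculated one day later with spore suspension on the lower surface. Held 24-36 h dark at 20 °C, 75% rh, then 12 h light/day; percent disease control versus untreated scored 12-14 days after application.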

[2] = test system: Glomerella lacenarium (Colletotrichum lacenarium); experiment: Glomerella lacenarium (Colletotrichum lacenarium) liquid culture / cucumber / preventative (anthracnose); format: cell-based; settings: 20 ppm, liquid culture in PDB, 24° C., inhibition of growth measured photometrically 3 to 4 days after application, vs untreated, read-out: disease control
Outline: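 Cryopreserved conidia in potato dextrose broth were added to test compound in a 96-well microtiter plate and incubated at 24 °C. Growth inhibition read photometrically 3–4 days after application, as percent activity versus untreated check.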

[3] = test system: Uromyces viciae-fabae; experiment: Uromyces viciae-fabae / field bean / leaf disc preventative (faba-bean rust); format: in vivo; settings: foliar, 288 h, 100 ppm in the applied formulation, field bean leaf discs, inoculated two hours after application, vs untreated, 12 days after application, read-out: disease control
Description: Leaf disks or leaf segments of various plant species are cut from plants grown in a greenhouse. The cut leaf disks or segments are placed in multiwell plates (24-well format) onto water agar. The leaf disks are sprayed with a test solution before (preventative) or after (curative) inoculation. Compounds to be tested are prepared as DMSO solutions (max. 10 mg/ml) which are diluted to the appropriate concentration with 0.025% Tween20 just before spraying. The inoculated leaf disks or segments are incubated under defined conditions (temperature, relative humidity, light, etc.) according to the respective test system. A single evaluation of disease level is carried out 3 to 14 days after inoculation, depending on the pathosystem. Percent disease control relative to the untreated check leaf disks or segments is then calculated.
Example 5: Fungicidal Activity Against Uromyces viciae-fabael Field Bean/Leaf Disc Preventative (Faba-Bean Rust)
Field bean leaf discs are placed on water agar in multiwell plates (96-well format) and 10 μl of the Formulated test compound diluted in acetone and a spreader pipetted onto the leaf disc. Two hours after application leaf discs are inoculated by spraying a spore suspension on the lower leaf surface. The leaf discs are incubated in a climate cabinet at 22° C. with 18 hour day and 70% relative humidity. The activity of a compound is assessed as percent disease control compared to untreated when an appropriate level of disease damage appears in untreated check leaf disks (12 days after application).
The following compounds at 100 ppm in the applied Formulation give at least 80% disease control in this test when compared to untreated control leaf discs under the same conditions, which show extensive disease development.

[4] = test system: Puccinia recondita f. Sp. Tritici; experiment: Puccinia recondita f. sp. tritici / wheat / leaf disc preventative (brown rust); format: in vivo; settings: foliar, 200 ppm in the applied formulation, wheat leaf segments cv. Kanzler, inoculated 1 day after application, vs untreated, 7 to 9 days after application, read-out: disease control
Outline: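 Segments of cv. Kanzler wheat on agar received a spray of compound formulation diluted in water and were inoculated with spores one day afterwards. Kept at 19° C and 75% rh under 12 h/12 h light; disease control relative to untreated checks rated at 7–9 days post-application.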

[5] = test system: Puccinia recondita f. Sp. Tritici; experiment: Puccinia recondita f. sp. tritici / wheat / leaf disc curative (brown rust); format: in vivo; settings: foliar, 200 ppm in the applied formulation, wheat leaf segments cv. Kanzler, compound applied 1 day after inoculation, vs untreated, 6 to 8 days after application, read-out: disease control
Outline: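 Wheat leaf segments (cv. Kanzler) on agar inoculated with brown rust spores, held dark at 19 °C/75% RH, then sprayed 1 day post-inoculation with formulated compound diluted in water (curative). Incubated at 19 °C/75% RH, 12 h light/12 h dark; percent disease control versus untreated scored 6–8 days after application.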

Row | Structure (SMILES) | pest or weed control at 200 ppm [1] | inhibition of growth at 20 ppm [2] | pest or weed control at 100 ppm [3] | melting point | pest or weed control at 200 ppm [4] | pest or weed control at 200 ppm [5]
1 | O=C(Nc1ccc(-c2noc(C(F)(F)F)n2)cc1)c1ccccc1C(F)(F)F [Compound 1.1, 2-(trifluoromethyl)-N-[4-[5-(trifluoromethyl)-1,2,4-oxadiazol-3-yl]phenyl]benzamide] | ≥ 80% | ≥ 80% | ≥ 80% | 162 to 163 °C |  | 
2 | O=C(Nc1ccc(-c2noc(C(F)(F)F)n2)cc1)c1cn[nH]c1 [Compound 1.11, N-[4-[5-(trifluoromethyl)-1,2,4-oxadiazol-3-yl]phenyl]-1H-pyrazole-4-carboxamide] |  |  | ≥ 80% | 200 to 204 °C |  | 
3 | O=C(Nc1ccc(-c2noc(C(F)(F)F)n2)cc1)C1CCCO1 (centres unmarked) [Compound 1.41, N-[4-[5-(trifluoromethyl)-1,2,4-oxadiazol-3-yl]phenyl] tetrahydrofuran-2-carboxamide] | ≥ 80% | ≥ 80% | ≥ 80% | 115 to 120 °C | ≥ 80% | ≥ 80%
4 | O=C(Nc1ccc(-c2noc(C(F)(F)F)n2)cn1)c1ccccc1 [Compound 1.46, N-[5-[5-(trifluoromethyl)-1,2,4-oxadiazol-3-yl]-2-pyridyl]benzamide] | ≥ 80% |  | ≥ 80% | 172.8 to 174.3 °C |  | 
5 | CC(C)(C)NC(=O)CN(C(=O)C1CC1)c1ccc(-c2noc(C(F)(F)F)n2)cc1 [Compound 1.60, N-[2-(tert-butylamino)-2-oxo-ethyl]-N-[4-[5-(trifluoromethyl)-1,2,4-oxadiazol-3-yl]phenyl]cyclopro-panecarboxamide] |  | ≥ 80% | ≥ 80% | 110 to 112 °C |  | 
6 | COCC(=O)N(c1ccc(-c2noc(C(F)(F)F)n2)cc1)C(C)C(=O)NC(C)(C)C (centres unmarked) [Compound 1.62, N-tert-butyl-2-[N-(2-methoxyacetyl)-4-[5-(trifluoromethyl)-1,2,4-oxadiazol-3-yl]anilino] propanamide] |  |  | ≥ 80% | 115 to 117 °C |  | 
7 | CCN(OC)C(=O)Nc1ccc(-c2noc(C(F)(F)F)n2)cc1 [Compound 1.67, 1-ethyl-1-methoxy-3-[4-[5-(trifluoromethyl)-1,2,4-oxadiazol-3-yl]phenyl]urea] | ≥ 80% | ≥ 80% |  | 113 to 116 °C | ≥ 80% | ≥ 80%
8 | COCCN(OC)C(=O)Nc1ccc(-c2noc(C(F)(F)F)n2)cc1 [Compound 1.68, 1-methoxy-1-(2-methoxyethyl)-3-[4-[5-(trifluoromethyl)-1,2,4-oxadiazol-3-yl]phenyl]urea] | ≥ 80% | ≥ 80% |  | 89 to 92 °C | ≥ 80% | ≥ 80%
9 | C=C(C)CONC(=O)Nc1ccc(-c2noc(C(F)(F)F)n2)cc1 [Compound 1.70, 1-(2-methylallyloxy)-3-[4-[5-(trifluoromethyl)-1,2,4-oxadiazol-3-yl]phenyl]urea] | ≥ 80% | ≥ 80% |  | 134 to 137 °C | ≥ 80% | ≥ 80%
10 | CON1CCN(C(=O)Nc2ccc(-c3noc(C(F)(F)F)n3)cc2)CC1 [Compound 1.130, 4-methoxy-N-[4-[5-(trifluoromethyl)-1,2,4-oxadiazol-3-yl]phenyl]piperazine-1-carboxamide] | ≥ 80% | ≥ 80% |  | 164 to 167 °C | ≥ 80% | ≥ 80%
11 | C=C(C)CON(C)C(=O)Nc1ccc(-c2noc(C(F)(F)F)n2)cc1 [Compound 1.131, 1-methyl-1-(2-methylallyloxy)-3-[4-[5-(trifluoromethyl)-1,2,4-oxadiazol-3-yl]phenyl]urea] | ≥ 80% | ≥ 80% |  | 65 to 68 °C | ≥ 80% | ≥ 80%
12 | CONC(=O)N(C)c1ccc(-c2noc(C(F)(F)F)n2)cc1 [Compound 1.132, 3-methoxy-1-methyl-1-[4-[5-(trifluoromethyl)-1,2,4-oxadiazol-3-yl]phenyl]urea] |  | ≥ 80% |  | 73 to 76 °C | ≥ 80% | ≥ 80%
13 | COCC(=O)Nc1ccc(-c2noc(C(F)(F)F)n2)cc1 [Compound 2.1, 2-methoxy-N-[4-[5-(trifluoromethyl)-1,2,4-oxadiazol-3-yl]phenyl]acetamide] | ≥ 80% | ≥ 80% | ≥ 80% | 93 to 94 °C | ≥ 80% | ≥ 80%
14 | O=C(Nc1ccc(-c2noc(C(F)(F)F)n2)cc1)C(F)(F)F [Compound 2.2, 2,2,2-trifluoro-N-[4-[5-(trifluoromethyl)-1,2,4-oxadiazol-3-yl]phenyl]acetamide] |  | ≥ 80% | ≥ 80% | 146 to 147 °C |  | 
15 | C=CCONC(=O)Nc1ccc(-c2noc(C(F)(F)F)n2)cc1 [Compound 2.3, 1-allyloxy-3-[4-[5-(trifluoromethyl)-1,2,4-oxadiazol-3-yl]phenyl]urea] | ≥ 80% | ≥ 80% | ≥ 80% | 124 to 127 °C | ≥ 80% | ≥ 80%
16 | CCC(=O)N(C)c1ccc(-c2noc(C(F)(F)F)n2)cc1 [Compound 2.17, N-methyl-N-[4-[5-(trifluoromethyl)-1,2,4-oxadiazol-3-yl]phenyl] propanamide] | ≥ 80% | ≥ 80% |  | 78 to 86 °C | ≥ 80% | ≥ 80%
17 | O=C(Nc1ccc(-c2noc(C(F)(F)F)n2)cc1)N1CCCCO1 [Compound 2.23, N-[4-[5-(trifluoromethyl)-1,2,4-oxadiazol-3-yl]phenyl]oxazinane-2-carboxamide] | ≥ 80% | ≥ 80% |  | 117 to 120 °C | ≥ 80% | ≥ 80%
